Results taken from patent US12240841B2, “FXR small molecule agonist and preparation method therefor and use thereof” (Shanghai Institute of Materia Medica, Chinese Academy of …, priority 2019, dated 2025).
Where two headings read alike, the source gives them in different places.

Legend:
[1] = target: T1, recombinant GST-FXR fusion protein (Homo sapiens, UniProt Q96RI1); test: FXR activity at the molecular level (AlphaScreen); assay type: biochemical
T1 sequence (Q96RI1 1-486): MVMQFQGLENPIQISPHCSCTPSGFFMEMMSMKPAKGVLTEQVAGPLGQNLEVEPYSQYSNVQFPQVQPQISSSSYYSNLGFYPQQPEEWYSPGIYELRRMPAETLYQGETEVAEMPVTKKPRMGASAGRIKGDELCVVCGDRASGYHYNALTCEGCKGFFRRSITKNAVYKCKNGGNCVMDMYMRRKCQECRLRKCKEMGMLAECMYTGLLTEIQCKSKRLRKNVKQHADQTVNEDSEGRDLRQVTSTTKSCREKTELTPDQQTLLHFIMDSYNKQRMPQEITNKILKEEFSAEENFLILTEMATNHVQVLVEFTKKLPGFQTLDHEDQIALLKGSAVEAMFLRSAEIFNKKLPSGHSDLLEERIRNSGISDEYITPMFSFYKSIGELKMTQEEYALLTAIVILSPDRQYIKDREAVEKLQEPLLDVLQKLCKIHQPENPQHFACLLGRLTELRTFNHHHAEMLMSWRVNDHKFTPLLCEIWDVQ
Procedure: Test Method for FXR Activity at the Molecular Level
FXR activity was determined using recombinant GST-FXR fusion protein by Perkin Elmer's AlphaScreen detection reagent. The reaction in this method was carried out in a 384-well plate, and the total reaction volume was 15 μL. The mixture of protein, agonist, co-regulatory factor, AlphaScreen® acceptor beads and AlphaScreen® donor beads was reacted in a buffer containing Tris-HCl 50 mM (pH7.4), 50 mM NaCl, BSA 0.1%, and 1 mM DTT. The FXR activity was reflected by the fluorescence signal intensity at 570 nm wavelength detected by the Envision fluorescence detector. The value of EC50 was calculated by the software Graphpad Prism 5.

FXR receptor = target: T2, FXR receptor (Homo sapiens, UniProt Q96RI1); test: FXR activity at the cell level (FXRE luciferase reporter in 293T cells); assay type: cell-based; settings: for Activity relative to OCA (%) 10 μM: luciferase reporter
T2 construct: expressed in transfected cells; host or cells: 293T cells
T2 sequence (Q96RI1 1-486): T1 sequence (Q96RI1 1-486)
Procedure: The cells were cultured for 24 hours to ensure plasmid expression. Then the FXR receptor agonist to be tested was added and acted for 18 hours. The fluorescence intensity was detected using luciferase kit (steady-Glo Luciferase Assay system) to reflect the compound's activation efficiency on the FXR receptor. […] The appropriate concentration interval was selected, and the dose-dependent relationship, that is, the EC50 value, was calculated.

[2] = 293T cells, FXRE luciferase reporter, read-out: EC50 (cell level)

Compound | EC50 [1] | Activity relative to OCA (%) 10 μM (FXR receptor; 293T cells) | EC50 (FXR receptor; [2]) | EC50 (FXR receptor)
O=c1[nH]c(-c2ccc(N3CCCC(OCc4c(-c5c(Cl)cccc5Cl)noc4C4CC4)CC3)cc2)no1 (stereo not drawn) [Example 4] | 15 nM | 97% | 0.6 nM | 
O=c1[nH]c(-c2ccc(N3C4CCC3CC(OCc3c(-c5c(Cl)cccc5Cl)noc3C3CC3)C4)cc2)no1 (stereo not drawn) [Example 7] | 6.7 nM | 88% | 6 nM | 
O=c1[nH]c(-c2ccc(N3CCC(OCc4c(-c5c(Cl)cccc5Cl)noc4C4CC4)CC3)nc2)no1 [Example 13] | 178 nM | 111% | 0.7 nM | 
O=c1[nH]c(-c2ccc(N3CCC(OCc4c(-c5c(Cl)cccc5Cl)noc4C4CC4)CC3)cc2F)no1 [Example 16] | 195 nM | 168% | 0.2 nM | 
O=c1[nH]c(-c2ccc(N3CCC(OCc4c(-c5c(Cl)cccc5Cl)noc4C4CC4)CC3)c(F)c2)no1 [Example 18] | 614 nM | 150% | 2 nM | 
Cn1cc(-c2noc(=O)[nH]2)c2cc(N3CCC(OCc4c(-c5c(Cl)cccc5Cl)noc4C4CC4)CC3)ccc21 [Example 19] | 3140 nM | 132% | 285 nM | 
S=c1[nH]c(-c2ccc(N3CCC(OCc4c(-c5c(Cl)cccc5Cl)noc4C4CC4)CC3)cc2)no1 [Example 20] | 5470 nM | 146% | 5 nM | 
O=c1[nH]c(-c2ccc(N3CCC(OCc4c(-c5ccccc5C(F)(F)F)noc4C4CC4)CC3)nc2)no1 [Example 21] | 96.7 nM | 117% | 1.32 nM | 
O=c1[nH]c(-c2ccc(N3CCC(OCc4c(-c5ccccc5OC(F)(F)F)noc4C4CC4)CC3)cc2F)no1 [Example 29] | 108 nM | 120% | 0.938 nM | 
O=c1[nH]c(-c2ccc(N3C4CCC3CC(OCc3c(-c5c(F)cccc5F)noc3C3CC3)C4)nc2)no1 (stereo not drawn) [Example 31] | 11.3 nM | 116% | 0.608 nM | 
O=c1[nH]c(-c2ccc(N3C4CCC3CC(OCc3c(-c5c(Cl)cccc5Cl)noc3C3CC3)C4)nc2)no1 (stereo not drawn) [Example 32] | 4.33 nM | 103% | 0.0783 nM | 
O=c1[nH]c(-c2ccc(N3C4CCC3CC(OCc3c(-c5ccccc5C(F)(F)F)noc3C3CC3)C4)nc2)no1 (stereo not drawn) [Example 33] | 18.8 nM | 141% | 0.387 nM | 
O=c1[nH]c(-c2ccc(N3C4CCC3CC(OCc3c(-c5ccccc5OC(F)(F)F)noc3C3CC3)C4)nc2)no1 (stereo not drawn) [Example 34] | 19.7 nM | 122% | 0.388 nM | 
O=c1[nH]c(-c2ccc(N3C4CCC3CC(OCc3c(-c5c(F)cccc5F)noc3C3CC3)C4)cc2F)no1 (stereo not drawn) [Example 35] | 18.5 nM | 117% | 0.318 nM | 
O=c1[nH]c(-c2ccc(N3C4CCC3CC(OCc3c(-c5c(Cl)cccc5Cl)noc3C3CC3)C4)cc2F)no1 (stereo not drawn) [Example 36] | 4.22 nM | 102% |  | 0.0317 nM

Continued by falling EC50 [1], values first:

EC50 [1] | Activity relative to OCA (%) 10 μM (FXR receptor; 293T cells) | EC50 (FXR receptor; [2]) | Compound | EC50 (FXR receptor)
4700 nM | 83% | 844 nM | O=c1[nH]c(-c2cccc(N3CCC(OCc4c(-c5c(Cl)cccc5Cl)noc4C4CC4)C3)c2)no1 (stereo not drawn) [Example 5] | 
3920 nM | 99% | 32 nM | O=c1[nH]c(-c2ccc(N3CCC(OCc4c(-c5c(Cl)cccc5Cl)noc4C4CC4)C3)cc2)no1 (stereo not drawn) [Example 6] | 
2880 nM | 63% | 35 nM | O=c1[nH]c(-c2ccc(N3CCC(OCc4c(-c5c(Cl)cccc5Cl)noc4-c4ccccc4)CC3)cc2)no1 [Example 12] | 
2650 nM | 159% | 3 nM | Cc1cc(-c2noc(=O)[nH]2)ccc1N1CCC(OCc2c(-c3c(Cl)cccc3Cl)noc2C2CC2)CC1 [Example 15] | 
1810 nM | 87% | 14 nM | O=c1[nH]c(-c2cccc(N3CCCC(OCc4c(-c5c(Cl)cccc5Cl)noc4C4CC4)CC3)c2)no1 (stereo not drawn) [Example 3] | 
1040 nM | 202% | 0.2 nM | Cc1onc(-c2c(Cl)cccc2Cl)c1COC1CCN(c2ccc(-c3noc(=O)[nH]3)cc2)CC1 [Example 10] | 
598 nM | 74% | 5 nM | O=c1[nH]c(-c2ccc(N3CCC(OCc4c(-c5c(Cl)cccc5Cl)noc4C4CC4)CC3)cn2)no1 [Example 14] | 
439 nM | 164% | 0.7 nM | CC(C)c1onc(-c2c(Cl)cccc2Cl)c1COC1CCN(c2ccc(-c3noc(=O)[nH]3)cc2)CC1 [Example 11] | 
392 nM | 109% | 2.22 nM | O=c1[nH]c(-c2ccc(N3CCC(OCc4c(-c5ccccc5C(F)(F)F)noc4C4CC4)CC3)c(F)c2)no1 [Example 23] | 
386 nM | 108% | 1.99 nM | O=c1[nH]c(-c2ccc(N3CCC(OCc4c(-c5ccccc5C(F)(F)F)noc4C4CC4)CC3)cn2)no1 [Example 22] | 
380 nM | 107% | 0.617 nM | O=c1[nH]c(-c2ccc(N3CCC(OCc4c(-c5ccccc5OC(F)(F)F)noc4C4CC4)CC3)c(F)c2)no1 [Example 28] | 
257 nM | 161% | 0.3 nM | O=c1[nH]c(-c2c(F)cc(N3CCC(OCc4c(-c5c(Cl)cccc5Cl)noc4C4CC4)CC3)cc2F)no1 [Example 17] | 
89 nM | 120% | 0.255 nM | O=c1[nH]c(-c2c(F)cc(N3CCC(OCc4c(-c5ccccc5OC(F)(F)F)noc4C4CC4)CC3)cc2F)no1 [Example 30] | 
84.7 nM | 103% | 0.12 nM | O=c1[nH]c(-c2c(F)cc(N3CCC(OCc4c(-c5ccccc5C(F)(F)F)noc4C4CC4)CC3)cc2F)no1 [Example 25] | 
72 nM | 174% | 1 nM | O=c1[nH]c(-c2ccc(N3CCC(OCc4c(-c5c(Cl)cccc5Cl)noc4C4CC4)CC3)cc2)no1 [Example 2] | 
70 nM | 103% | 0.254 nM | O=c1[nH]c(-c2ccc(N3CCC(OCc4c(-c5ccccc5OC(F)(F)F)noc4C4CC4)CC3)nc2)no1 [Example 26] | 
59 nM | 105% | 0.196 nM | O=c1[nH]c(-c2ccc(N3CCC(OCc4c(-c5ccccc5C(F)(F)F)noc4C4CC4)CC3)cc2F)no1 [Example 24] | 
55 nM | 90% | 4 nM | O=c1[nH]c(-c2ccc(N3CCC(OCc4c(-c5ccccc5OC(F)(F)F)noc4C4CC4)CC3)cc2)no1 [Example 9] | 
20.9 nM | 106% | 0.357 nM | O=c1[nH]c(-c2ccc(N3CCC(OCc4c(-c5ccccc5OC(F)(F)F)noc4C4CC4)CC3)cn2)no1 [Example 27] | 
